Experimental data reported in patent publication US9328099B2, “Cyanomethylpyrazole carboxamides as janus kinase inhibitors” (Merck Sharp & Dohme Corp., priority 2011, dated 2016).
pIC50: −log10 of the molar value.

What was measured:
JAK1 = JAK1 (Homo sapiens (Human), UniProt P23458); assay: Jak Biochemical HTRF Assay, JAK1; settings: HTRF biochemical assay, GST-tagged catalytic domain; top concentration tested […]; read-out: JAK1 IC50
Excerpt: (§1) Jak Biochemical HTRF Assay Protocol
(§2) Subsequent reagent additions employed an Agilent Bravo.

JAK2 = JAK2 (Homo sapiens (Human), UniProt O60674); assay: Jak Biochemical HTRF Assay, JAK2; settings: HTRF biochemical assay, GST-tagged catalytic domain; top concentration tested […]
Excerpt: as §1, §2

Chain of JAK1 (P23458 875-1153): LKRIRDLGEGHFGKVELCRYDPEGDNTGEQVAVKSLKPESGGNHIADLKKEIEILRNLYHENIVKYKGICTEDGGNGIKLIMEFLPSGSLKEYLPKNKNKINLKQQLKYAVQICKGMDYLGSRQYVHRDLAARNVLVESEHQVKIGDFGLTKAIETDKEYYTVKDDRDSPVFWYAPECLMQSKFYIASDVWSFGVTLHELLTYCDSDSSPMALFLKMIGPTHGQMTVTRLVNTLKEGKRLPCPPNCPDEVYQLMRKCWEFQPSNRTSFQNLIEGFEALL
Chain of JAK2 (O60674 849-1124): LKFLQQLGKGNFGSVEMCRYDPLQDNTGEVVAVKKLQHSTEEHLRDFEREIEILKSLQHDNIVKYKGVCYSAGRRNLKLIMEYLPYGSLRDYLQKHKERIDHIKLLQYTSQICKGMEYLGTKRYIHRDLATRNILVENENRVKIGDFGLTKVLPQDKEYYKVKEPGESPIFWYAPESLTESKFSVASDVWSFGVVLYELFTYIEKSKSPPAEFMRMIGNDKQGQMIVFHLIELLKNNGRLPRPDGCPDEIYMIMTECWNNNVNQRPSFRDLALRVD

Row | SMILES | pIC50 (JAK1) | pIC50 (JAK2)
1 | Cc1cc(CN2CCC(CC#N)(n3cc(C(N)=O)c(Nc4ccnc(F)c4)n3)CC2)no1 [Example 22-27, 1-{4-(cyanomethyl)-1-[(5-methylisoxazol-3-yl)methyl]piperidin-4-yl}-3-[(2-fluoropyridin-4-yl)amino]-1H-pyrazole-4-carboxamide] | 8.22 | 6.80
2 | N#CCC1(n2cc(C(N)=O)c(Nc3ccnc(F)c3)n2)CCN(Cc2ncco2)CC1 [Example 22-28, 1-[4-(cyanomethyl)-1-(1,3-oxazol-2-ylmethyl)piperidin-4-yl]-3-[(2-fluoropyridin-4-yl)amino]-1H-pyrazole-4-carboxamide] | 8.52 | 7.14
3 | Cn1nccc1CN1CCC(CC#N)(n2cc(C(N)=O)c(Nc3ccnc(F)c3)n2)CC1 [Example 22-29, 1-{4-(cyanomethyl)-1-[(1-methyl-1H-pyrazol-5-yl)methyl]piperidin-4-yl}-3-[(2-fluoropyridin-4-yl)amino]-1H-pyrazole-4-carboxamide] | 8.70 | 7.43
4 | Cn1ccc(CN2CCC(CC#N)(n3cc(C(N)=O)c(Nc4ccnc(F)c4)n3)CC2)n1 [Example 22-30, 1-{4-(cyanomethyl)-1-[(1-methyl-1H-pyrazol-3-yl)methyl]piperidin-4-yl}-3-[(2-fluoropyridin-4-yl)amino]-1H-pyrazole-4-carboxamide] | 7.07 | < 5.83
5 | N#CCC1(n2cc(C(N)=O)c(Nc3ccnc(F)c3)n2)CCN(Cc2ccon2)CC1 [Example 22-31, 1-[4-(cyanomethyl)-1-(isoxazol-3-ylmethyl)piperidin-4-yl]-3-[(2-fluoropyridin-4-yl)amino]-1H-pyrazole-4-carboxamide] | 9.00 | 7.33
6 | N#CCC1(n2cc(C(N)=O)c(Nc3ccnc(F)c3)n2)CCN(Cc2cccc(F)n2)CC1 [Example 22-32, 1-{4-(cyanomethyl)-1-[(6-fluoropyridin-2-yl)methyl]piperidin-4-yl}-3-[(2-fluoropyridin-4-yl)amino]-1H-pyrazole-4-carboxamide] | 8.70 | 7.08
7 | N#CCC1(n2cc(C(N)=O)c(Nc3ccnc(F)c3)n2)CCN(Cc2cccc3ccnn23)CC1 [Example 22-33, 1-[4-(cyanomethyl)-1-(pyrazolo[1,5-a]pyridin-7-ylmethyl)piperidin-4-yl]-3-[(2-fluoropyridin-4-yl)amino]-1H-pyrazole-4-carboxamide] | 8.70 | 7.09
8 | N#CCC1(n2cc(C(N)=O)c(Nc3ccnc(F)c3)n2)CCN(Cc2cc3ccccn3n2)CC1 [Example 22-34, 1-[4-(cyanomethyl)-1-(pyrazolo[1,5-a]pyridin-2-ylmethyl)piperidin-4-yl]-3-[(2-fluoropyridin-4-yl)amino]-1H-pyrazole-4-carboxamide] | 8.10 | 6.79
9 | N#CCC1(n2cc(C(N)=O)c(Nc3ccnc(F)c3)n2)CCN(Cc2cccnn2)CC1 [Example 22-35, 1-[4-(cyanomethyl)-1-(pyridazin-3-ylmethyl)piperidin-4-yl]-3-[(2-fluoropyridin-4-yl)amino]-1H-pyrazole-4-carboxamide] | 8.22 | 6.84
10 | N#CCC1(n2cc(C(N)=O)c(Nc3ccnc(F)c3)n2)CCN(Cc2ccc(F)cn2)CC1 [Example 22-36, 1-{4-(cyanomethyl)-1-[(5-fluoropyridin-2-yl)methyl]piperidin-4-yl}-3-[(2-fluoropyridin-4-yl)amino]-1H-pyrazole-4-carboxamide] | 8.70 | 7.01
11 | COC1CC(CN2CCC(CC#N)(n3cc(C(N)=O)c(Nc4ccnc(F)c4)n3)CC2)C1 (stereo not shown) [Example 22-37, 1-{4-(cyanomethyl)-1-[(3-methoxycyclobutyl)methyl]piperidin-4-yl}-3-[(2-fluoropyridin-4-yl)amino]-1H-pyrazole-4-carboxamide] | 7.06 | < 5.83
12 | N#CCC1(n2cc(C(N)=O)c(Nc3ccnc(F)c3)n2)CCN(Cc2cncc(F)c2)CC1 [Example 22-38, 1-{4-(cyanomethyl)-1-[(5-fluoropyridin-3-yl)methyl]piperidin-4-yl}-3-[(2-fluoropyridin-4-yl)amino]-1H-pyrazole-4-carboxamide] | 9.70 | 8.30
13 | N#CCC1(n2cc(C(N)=O)c(Nc3ccnc(F)c3)n2)CCN(Cc2cc3ccccc3[nH]2)CC1 [Example 22-39, 1-[4-(cyanomethyl)-1-(1H-indol-2-ylmethyl)piperidin-4-yl]-3-[(2-fluoropyridin-4-yl)amino]-1H-pyrazole-4-carboxamide] | 9.70 | 7.85
14 | Cc1c(CN2CCC(CC#N)(n3cc(C(N)=O)c(Nc4ccnc(F)c4)n3)CC2)cnn1C [Example 22-40, 1-{4-(cyanomethyl)-1-[(1,5-dimethyl-1H-pyrazol-4-yl)methyl]piperidin-4-yl}-3-[(2-fluoropyridin-4-yl)amino]-1H-pyrazole-4-carboxamide] | 7.64 | 6.24
15 | N#CCC1(n2cc(C(N)=O)c(Nc3ccnc(F)c3)n2)CCN(Cc2nc3ccccc3[nH]2)CC1 [Example 22-41, 1-[1-(1H-benzimidazol-2-ylmethyl)-4-(cyanomethyl)piperidin-4-yl]-3-[(2-fluoropyridin-4-yl)amino]-1H-pyrazole-4-carboxamide] | 7.74 | 6.19
16 | CC1=NOC(CN2CCC(CC#N)(n3cc(C(N)=O)c(Nc4ccnc(F)c4)n3)CC2)C1 (stereo not shown) [Example 22-42, 1-{4-(cyanomethyl)-1-[(3-methyl-4,5-dihydroisoxazol-5-yl)methyl]piperidin-4-yl}-3-[(2-fluoropyridin-4-yl)amino]-1H-pyrazole-4-carboxamide] | 7.74 | 6.24
17 | N#CCC1(n2cc(C(N)=O)c(Nc3ccc(F)cc3)n2)CCN(Cc2cc3ccccc3[nH]2)CC1 [Example 22-43, 1-[4-(cyanomethyl)-1-(1H-indol-2-ylmethyl)piperidin-4-yl]-3-[(4-fluorophenyl)amino]-1H-pyrazole-4-carboxamide] | 9.00 | 7.19
18 | Cc1cnc(F)c(CN2CCC(CC#N)(n3cc(C(N)=O)c(Nc4ccc(F)cc4)n3)CC2)c1 [Example 22-44, 1-{4-(cyanomethyl)-1-[(2-fluoro-5-methylpyridin-3-yl)methyl]piperidin-4-yl}-3-[(4-fluorophenyl)amino]-1H-pyrazole-4-carboxamide] | 8.30 | 7.66
19 | N#CCC1(n2cc(C(N)=O)c(Nc3ccc(F)cc3)n2)CCN(Cc2ccon2)CC1 [Example 22-45, 1-[4-(cyanomethyl)-1-(isoxazol-3-ylmethyl)piperidin-4-yl]-3-[(4-fluorophenyl)amino]-1H-pyrazole-4-carboxamide] | 8.70 | 7.47
20 | N#CCC1(n2cc(C(N)=O)c(Nc3ccc(F)cc3)n2)CCN(Cc2cccc(F)n2)CC1 [Example 22-46, 1-{4-(cyanomethyl)-1-[(6-fluoropyridin-2-yl)methyl]piperidin-4-yl}-3-[(4-fluorophenyl)amino]-1H-pyrazole-4-carboxamide] | 8.52 | 7.02
21 | N#CCC1(n2cc(C(N)=O)c(Nc3ccc(F)cc3)n2)CCN(Cc2cccnn2)CC1 [Example 22-47, 1-[4-(cyanomethyl)-1-(pyridazin-3-ylmethyl)piperidin-4-yl]-3-[(4-fluorophenyl)amino]-1H-pyrazole-4-carboxamide] | 8.22 | 7.00
22 | N#CCC1(n2cc(C(N)=O)c(Nc3ccc(F)cc3)n2)CCN(Cc2ccc(F)cn2)CC1 [Example 22-48, 1-{4-(cyanomethyl)-1-[(5-fluoropyridin-2-yl)methyl]piperidin-4-yl}-3-[(4-fluorophenyl)amino]-1H-pyrazole-4-carboxamide] | 8.70 | 7.14
23 | N#CCC1(n2cc(C(N)=O)c(Nc3ccc(F)cc3)n2)CCN(Cc2cncc(F)c2)CC1 [Example 22-49, 1-{4-(cyanomethyl)-1-[(5-fluoropyridin-3-yl)methyl]piperidin-4-yl}-3-[(4-fluorophenyl)amino]-1H-pyrazole-4-carboxamide] | 8.70 | 7.54
24 | N#CCC1(n2cc(C(N)=O)c(Nc3ccc(F)cc3)n2)CCN(Cc2cc(F)ccn2)CC1 [Example 22-50, 1-{4-(cyanomethyl)-1-[(4-fluoropyridin-2-yl)methyl]piperidin-4-yl}-3-[(4-fluorophenyl)amino]-1H-pyrazole-4-carboxamide] | 9.22 | 7.80
25 | N#CCC1(n2cc(C(N)=O)c(Nc3ccc(F)cc3)n2)CCN(Cc2cccnc2)CC1 [Example 22-51, 1-[4-(cyanomethyl)-1-(pyridin-3-ylmethyl)piperidin-4-yl]-3-[(4-fluorophenyl)amino]-1H-pyrazole-4-carboxamide] | 9.40 | 8.05
26 | N#CCC1(n2cc(C(N)=O)c(Nc3ccc(F)cc3)n2)CCN(Cc2cnccn2)CC1 [Example 22-52, 1-[4-(cyanomethyl)-1-(pyrazin-2-ylmethyl)piperidin-4-yl]-3-[(4-fluorophenyl)amino]-1H-pyrazole-4-carboxamide] | 9.00 | 7.60
27 | N#CCC1(n2cc(C(N)=O)c(Nc3ccc(F)cc3)n2)CCN(Cc2ccnc3[nH]ccc23)CC1 [Example 22-53, 1-[4-(cyanomethyl)-1-(1H-pyrrolo[2,3-b]pyridin-4-ylmethyl)piperidin-4-yl]-3-[(4-fluorophenyl)amino]-1H-pyrazole-4-carboxamide] | 8.40 | 7.06
28 | N#CCC1(n2cc(C(N)=O)c(Nc3ccc(F)cc3)n2)CCN(Cc2ccco2)CC1 [Example 22-54, 1-[4-(cyanomethyl)-1-(furan-2-ylmethyl)piperidin-4-yl]-3-[(4-fluorophenyl)amino]-1H-pyrazole-4-carboxamide] | 9.00 | 7.55
29 | N#CCC1(n2cc(C(N)=O)c(Nc3ccc(F)cc3)n2)CCN(Cc2ccc3[nH]ccc3c2)CC1 [Example 22-55, 1-[4-(cyanomethyl)-1-(1H-indol-5-ylmethyl)piperidin-4-yl]-3-[(4-fluorophenyl)amino]-1H-pyrazole-4-carboxamide] | 8.40 | 7.28
